Data taken from patent US20100298141A1, “SUBSTITUTED PYRIDINE N-OXIDE HERBICIDES” (E. I. DU PONT DE NEMOURS AND COMPANY, priority 2007, published 2010).

Experiments:
giant foxtail = assay: Test A pre-/postemergence greenhouse test; type: in vivo, Setaria faberi; conditions: for Plant response rating, Foxtail, Giant: 0 to 100 scale where 0 is no effect and 100 is complete control; for Foxtail, Giant plant response rating: 0 to 100 scale
Source text: (§1) Seeds of barnyardgrass (Echinochloa crus-galli), crabgrass (Digitaria sanguinalis), giant foxtail (Setaria faberi), morningglory (Ipomoea spp.), redroot pigweed (Amaranthus retroflexus), velvetleaf (Abutilon theophrasti), wheat (Triticum aestivum), and corn (Zea mays) were planted into a blend of loam soil and sand and treated preemergence with a directed soil spray using test compounds formulated in a non-phytotoxic solvent mixture which included a surfactant. At the same time these species were also treated with postemergence applications of test compounds formulated in the same manner. Plants ranged in height from two to ten cm and were in the one- to two-leaf stage for the postemergence treatment. Treated plants and untreated controls were maintained in a greenhouse for approximately ten days, after which time all treated plants were compared to untreated controls and visually evaluated for injury. […] A dash (-) response means no test results.

wheat = assay: Test A pre-/postemergence greenhouse test; type: in vivo, Triticum aestivum; conditions: for Plant response rating, Wheat: 0 to 100 scale where 0 is no effect and 100 is complete control; for Wheat plant response rating: 0 to 100 scale
Source text: as §1

velvetleaf = assay: Test A pre-/postemergence greenhouse test; type: in vivo, Abutilon theophrasti; conditions: for Plant response rating, Velvetleaf: 0 to 100 scale where 0 is no effect and 100 is complete control; for Velvetleaf plant response rating: 0 to 100 scale
Source text: as §1

corn = assay: Test A pre-/postemergence greenhouse test; type: in vivo, Zea mays; conditions: for Plant response rating, Corn: 0 to 100 scale where 0 is no effect and 100 is complete control; for Corn plant response rating: 0 to 100 scale
Source text: as §1

duck salad = assay: Test C flooded paddy test; type: in vivo, Heteranthera limosa; conditions: Flood
Source text: (§2) At time of treatment, test pots were flooded to 3 cm above the soil surface, treated by application of test compounds directly to the paddy water, and then maintained at that water depth for the duration of the test. Treated plants and controls were maintained in a greenhouse for 13 to 15 days, after which time all species were compared to controls and visually evaluated. […] A dash (-) response means no test result.

crabgrass = assay: Test A pre-/postemergence greenhouse test; type: in vivo, Digitaria sanguinalis; conditions: for Plant response rating, Crabgrass, Large: 0 to 100 scale where 0 is no effect and 100 is complete control; for Crabgrass, Large plant response rating: 0 to 100 scale
Source text: as §1

rice = assay: Test C flooded paddy test; type: in vivo, Oryza sativa; conditions: Flood
Source text: as §2

umbrella sedge = assay: Test C flooded paddy test; type: in vivo, Cyperus difformis; conditions: Flood
Source text: as §2

barnyardgrass [1] = assay: Test A pre-/postemergence greenhouse test; type: in vivo, Echinochloa crus-galli; conditions: for Plant response rating, Barnyardgrass: 0 to 100 scale where 0 is no effect and 100 is complete control; for Barnyardgrass plant response rating: 0 to 100 scale
Source text: as §1

redroot pigweed = assay: Test A pre-/postemergence greenhouse test; type: in vivo, Amaranthus retroflexus; conditions: for Plant response rating, Pigweed: 0 to 100 scale where 0 is no effect and 100 is complete control; for Pigweed plant response rating: 0 to 100 scale
Source text: as §1

barnyardgrass [2] = assay: Test C flooded paddy test; type: in vivo, Echinochloa crus-galli; conditions: Flood
Source text: as §2

morningglory = assay: Test A pre-/postemergence greenhouse test; type: in vivo, Ipomoea spp.; conditions: for Plant response rating, Morningglory: 0 to 100 scale where 0 is no effect and 100 is complete control; for Morningglory plant response rating: 0 to 100 scale
Source text: as §1

[3] = Postemergence, 500 g ai/ha, 0 is no effect, 100 is complete control
[4] = Preemergence, 125 g ai/ha, 0 no effect, 100 complete control
[5] = 62 g ai/ha, scale 0 to 100, 0 no effect, 100 complete control, 13 to 15 days
[6] = 250 g ai/ha, scale 0 to 100, 0 no effect, 100 complete control, 13 to 15 days
[7] = Preemergence, 500 g ai/ha, 0 no effect, 100 complete control
[8] = 62 g ai/ha, scale 0 to 100 (0 no effect, 100 complete control)

| Compound | Plant response rating, Foxtail, Giant (giant foxtail; Postemergence, 125 g ai/ha) | Foxtail, Giant plant response rating (giant foxtail; [3]) | Foxtail, Giant plant response rating (giant foxtail; [4]) | Plant response rating, Foxtail, Giant (giant foxtail; Preemergence, 500 g ai/ha) | Plant response rating, Wheat (wheat; Postemergence, 125 g ai/ha) | Wheat plant response rating (wheat; [3]) | Wheat plant response rating (wheat; [4]) | Plant response rating, Velvetleaf (velvetleaf; Postemergence, 125 g ai/ha) | Velvetleaf plant response rating (velvetleaf; [3]) | Velvetleaf plant response rating (velvetleaf; [4]) | Plant response rating, Corn (corn; Postemergence, 125 g ai/ha) | Corn plant response rating (corn; [3]) | Corn plant response rating (corn; [4]) | Plant response rating, Corn (corn; Preemergence, 500 g ai/ha) | Plant response rating, Ducksalad (duck salad; [6]) | Plant response rating, Crabgrass, Large (crabgrass; Postemergence, 125 g ai/ha) | Crabgrass, Large plant response rating (crabgrass; [3]) | Crabgrass, Large plant response rating (crabgrass; [4]) | Plant response rating, Crabgrass, Large (crabgrass; Preemergence, 500 g ai/ha) | Plant response rating, Rice (rice; [6]) | other results |
| --- | --- | --- | --- | --- | --- | --- | --- | --- | --- | --- | --- | --- | --- | --- | --- | --- | --- | --- | --- | --- | --- |
| O=S(=O)(Cc1c(C(F)(F)F)nn(CC(F)(F)F)c1Cl)c1ccc(Cl)c[n+]1[O-] [Compound 50] | 70 | 70 | 80 | 90 | 0 | 0 | 0 | 0 | 0 | 0 | 0 | 0 | 0 | 0 | 40 | 60 | 70 | 60 | 90 | 30 | Plant response rating, Wheat (wheat; Preemergence, 500 g ai/ha): 0; Plant response rating, Velvetleaf (velvetleaf; Preemergence, 500 g ai/ha): 0; Plant response rating, Ducksalad (duck salad; [5]): 0; Plant response rating, Rice (rice; [5]): 0; Plant response rating, Sedge, Umbrella (umbrella sedge; [6]): 40; Plant response rating, Barnyardgrass (barnyardgrass [1]; Postemergence, 125 g ai/ha): 60; Barnyardgrass plant response rating (barnyardgrass [1]; [3]): 70; Barnyardgrass plant response rating (barnyardgrass [1]; [4]): 70; Plant response rating, Barnyardgrass (barnyardgrass [1]; Preemergence, 500 g ai/ha): 90; Plant response rating, Pigweed (redroot pigweed; Postemergence, 125 g ai/ha): 20; Pigweed plant response rating (redroot pigweed; [3]): 30; Pigweed plant response rating (redroot pigweed; [4]): 80; Plant response rating, Pigweed (redroot pigweed; Preemergence, 500 g ai/ha): 100; Plant response rating, Barnyardgrass (barnyardgrass [2]; [5]): 0; Plant response rating, Barnyardgrass (barnyardgrass [2]; [6]): 45; Plant response rating, Morningglory (morningglory; Postemergence, 125 g ai/ha): 30; Morningglory plant response rating (morningglory; [3]): 30; Morningglory plant response rating (morningglory; [4]): 30; Plant response rating, Morningglory (morningglory; Preemergence, 500 g ai/ha): 40 |
| Cn1nc(C(F)(F)F)c(CS(=O)(=O)c2ccc(Cl)c[n+]2[O-])c1OCC(F)F [Compound 93] | 60 | 80 | 60 | 90 | 20 | 40 | 30 | 0 | 50 | 0 | 30 | 30 | 0 | 0 | 50 | 50 | 80 | 60 | 90 | 30 | Wheat plant response rating (wheat; [7]): 30; Velvetleaf plant response rating (velvetleaf; [7]): 40; Plant response rating, Ducksalad (duck salad; [8]): 0; Plant response rating, Rice (rice; [8]): 0; Plant response rating, Sedge, Umbrella (umbrella sedge; [8]): 0; Plant response rating, Sedge, Umbrella (umbrella sedge; [6]): 40; Plant response rating, Barnyardgrass (barnyardgrass [1]; Postemergence, 125 g ai/ha): 70; Barnyardgrass plant response rating (barnyardgrass [1]; [3]): 80; Barnyardgrass plant response rating (barnyardgrass [1]; [4]): 60; Plant response rating, Barnyardgrass (barnyardgrass [1]; Preemergence, 500 g ai/ha): 90; Plant response rating, Pigweed (redroot pigweed; Postemergence, 125 g ai/ha): 60; Pigweed plant response rating (redroot pigweed; [3]): 70; Pigweed plant response rating (redroot pigweed; [4]): 70; Plant response rating, Pigweed (redroot pigweed; Preemergence, 500 g ai/ha): 100; Plant response rating, Barnyardgrass (barnyardgrass [2]; [8]): 0; Plant response rating, Barnyardgrass (barnyardgrass [2]; [6]): 20; Plant response rating, Morningglory (morningglory; Postemergence, 125 g ai/ha): 30; Morningglory plant response rating (morningglory; [3]): 40; Morningglory plant response rating (morningglory; [4]): 0; Plant response rating, Morningglory (morningglory; Preemergence, 500 g ai/ha): 0 |
| Cc1cc[n+]([O-])c([S+]([O-])Cc2c(C(F)(F)F)nn(C)c2OCC(F)(F)C(F)(F)F)c1 (stereo not shown) [Compound 90] | 50 | 80 | 70 | 100 | 0 | 70 | 0 | 0 | 80 | 0 | 30 | 50 | 0 | 50 | 20 | 20 | 80 | 40 | 90 | 0 | Wheat plant response rating (wheat; [7]): 80; Velvetleaf plant response rating (velvetleaf; [7]): 70; Plant response rating, Ducksalad (duck salad; [8]): 0; Plant response rating, Rice (rice; [8]): 0; Plant response rating, Sedge, Umbrella (umbrella sedge; [8]): 0; Plant response rating, Sedge, Umbrella (umbrella sedge; [6]): 70; Plant response rating, Barnyardgrass (barnyardgrass [1]; Postemergence, 125 g ai/ha): 0; Barnyardgrass plant response rating (barnyardgrass [1]; [3]): 60; Barnyardgrass plant response rating (barnyardgrass [1]; [4]): 0; Plant response rating, Barnyardgrass (barnyardgrass [1]; Preemergence, 500 g ai/ha): 100; Plant response rating, Pigweed (redroot pigweed; Postemergence, 125 g ai/ha): 10; Pigweed plant response rating (redroot pigweed; [3]): 30; Pigweed plant response rating (redroot pigweed; [4]): 0; Plant response rating, Pigweed (redroot pigweed; Preemergence, 500 g ai/ha): 40; Plant response rating, Barnyardgrass (barnyardgrass [2]; [8]): 0; Plant response rating, Barnyardgrass (barnyardgrass [2]; [6]): 0; Plant response rating, Morningglory (morningglory; Postemergence, 125 g ai/ha): 20; Morningglory plant response rating (morningglory; [3]): 90; Morningglory plant response rating (morningglory; [4]): 0; Plant response rating, Morningglory (morningglory; Preemergence, 500 g ai/ha): 60 |
| Cc1cc[n+]([O-])c(S(=O)(=O)Cc2c(C(F)(F)F)nn(C)c2OCC(F)(F)C(F)(F)F)c1 [Compound 98] | 20 | 80 | 50 | 100 | 0 | 0 | 0 | 0 | 40 | 0 | 30 | 30 | 0 | 0 | 0 | 10 | 70 | 30 | 90 | 0 | Wheat plant response rating (wheat; [7]): 20; Velvetleaf plant response rating (velvetleaf; [7]): 50; Plant response rating, Ducksalad (duck salad; [8]): 0; Plant response rating, Rice (rice; [8]): 0; Plant response rating, Sedge, Umbrella (umbrella sedge; [8]): 0; Plant response rating, Sedge, Umbrella (umbrella sedge; [6]): 0; Plant response rating, Barnyardgrass (barnyardgrass [1]; Postemergence, 125 g ai/ha): 0; Barnyardgrass plant response rating (barnyardgrass [1]; [3]): 70; Barnyardgrass plant response rating (barnyardgrass [1]; [4]): 60; Plant response rating, Barnyardgrass (barnyardgrass [1]; Preemergence, 500 g ai/ha): 100; Plant response rating, Pigweed (redroot pigweed; Postemergence, 125 g ai/ha): 0; Pigweed plant response rating (redroot pigweed; [3]): 20; Pigweed plant response rating (redroot pigweed; [4]): 20; Plant response rating, Pigweed (redroot pigweed; Preemergence, 500 g ai/ha): 60; Plant response rating, Barnyardgrass (barnyardgrass [2]; [8]): 0; Plant response rating, Barnyardgrass (barnyardgrass [2]; [6]): 0; Plant response rating, Morningglory (morningglory; Postemergence, 125 g ai/ha): 10; Morningglory plant response rating (morningglory; [3]): 80; Morningglory plant response rating (morningglory; [4]): 0; Plant response rating, Morningglory (morningglory; Preemergence, 500 g ai/ha): 50 |
| [O-][n+]1ccccc1[S+]([O-])Cc1c(C(F)(F)F)nn(CC(F)(F)F)c1Cl (stereo not shown) [Compound 43] | 70 | 90 | 80 | 90 | 40 | 60 | 40 | 20 | 60 | 30 | 30 | 50 | 0 | 50 | 60 | 70 | 80 | 70 | 90 | 30 | Plant response rating, Wheat (wheat; Preemergence, 500 g ai/ha): 70; Plant response rating, Velvetleaf (velvetleaf; Preemergence, 500 g ai/ha): 50; Plant response rating, Ducksalad (duck salad; [5]): 0; Plant response rating, Rice (rice; [5]): 0; Plant response rating, Sedge, Umbrella (umbrella sedge; [5]): 30; Plant response rating, Sedge, Umbrella (umbrella sedge; [6]): 70; Plant response rating, Barnyardgrass (barnyardgrass [1]; Postemergence, 125 g ai/ha): 50; Barnyardgrass plant response rating (barnyardgrass [1]; [3]): 80; Barnyardgrass plant response rating (barnyardgrass [1]; [4]): 70; Plant response rating, Barnyardgrass (barnyardgrass [1]; Preemergence, 500 g ai/ha): 90; Plant response rating, Pigweed (redroot pigweed; Postemergence, 125 g ai/ha): 30; Pigweed plant response rating (redroot pigweed; [3]): 60; Pigweed plant response rating (redroot pigweed; [4]): 0; Plant response rating, Pigweed (redroot pigweed; Preemergence, 500 g ai/ha): 90; Plant response rating, Barnyardgrass (barnyardgrass [2]; [5]): 0; Plant response rating, Barnyardgrass (barnyardgrass [2]; [6]): 60; Plant response rating, Morningglory (morningglory; Postemergence, 125 g ai/ha): 30; Morningglory plant response rating (morningglory; [3]): 80; Morningglory plant response rating (morningglory; [4]): 0; Plant response rating, Morningglory (morningglory; Preemergence, 500 g ai/ha): 80 |
